Laboratory results as given in patent publication US8076288B2 (priority 2004, dated 2011).

Legend:
C57BL/6 mice (DIO) = conditions: 250 nmol/kg/day
NIH/Swiss mice = conditions: for 60 min ED50: food intake, i.p.
calcitonin receptor = molecular target: T1, calcitonin receptor (Rattus norvegicus, UniProt P32214); assay type: binding
T1 construct: host or cells: general text: 'CHO cells or T47D cells'
T1 sequence (P32214 25-479 isoform P32214-2 limits assumed): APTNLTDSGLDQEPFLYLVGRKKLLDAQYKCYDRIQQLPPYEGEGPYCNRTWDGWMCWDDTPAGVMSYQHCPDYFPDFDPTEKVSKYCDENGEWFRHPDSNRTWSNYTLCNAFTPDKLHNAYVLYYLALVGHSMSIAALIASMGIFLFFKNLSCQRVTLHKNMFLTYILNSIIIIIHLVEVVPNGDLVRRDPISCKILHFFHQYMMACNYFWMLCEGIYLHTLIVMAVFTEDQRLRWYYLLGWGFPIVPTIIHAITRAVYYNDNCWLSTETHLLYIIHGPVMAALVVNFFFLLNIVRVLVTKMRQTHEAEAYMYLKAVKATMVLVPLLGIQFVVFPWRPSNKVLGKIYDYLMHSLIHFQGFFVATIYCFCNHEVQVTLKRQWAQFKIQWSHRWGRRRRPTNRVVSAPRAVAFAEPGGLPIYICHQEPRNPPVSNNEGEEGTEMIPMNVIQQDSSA

CT receptor = molecular target: T2, CT receptor (Rattus norvegicus, UniProt P32214); assay: CT cyclase (C1A) assay; assay type: biochemical
T2 construct: host or cells: general text: 'CHO cells or T47D cells'
T2 sequence (P32214 25-479 isoform P32214-2 limits assumed): T1 sequence (P32214 25-479 isoform P32214-2 limits assumed)

CGRP receptors = molecular target: T3, CGRP receptors (Homo sapiens, UniProt O60894+Q16602); assay type: binding
T3 construct: SK-N-MC and L6 cells expressing endogenous CGRP receptors; endogenous in cells; host or cells: SK-N-MC cells (membranes)

amylin receptors = molecular target: T4, amylin receptors (Rattus norvegicus, UniProt P32214); assay type: binding
T4 construct: nuclueus accumbens membranes prepared from rat brain; from tissue; host or cells: rat basal forebrain / nucleus accumbens membranes (male Sprague-Dawley rats)
T4 sequence (P32214 25-516): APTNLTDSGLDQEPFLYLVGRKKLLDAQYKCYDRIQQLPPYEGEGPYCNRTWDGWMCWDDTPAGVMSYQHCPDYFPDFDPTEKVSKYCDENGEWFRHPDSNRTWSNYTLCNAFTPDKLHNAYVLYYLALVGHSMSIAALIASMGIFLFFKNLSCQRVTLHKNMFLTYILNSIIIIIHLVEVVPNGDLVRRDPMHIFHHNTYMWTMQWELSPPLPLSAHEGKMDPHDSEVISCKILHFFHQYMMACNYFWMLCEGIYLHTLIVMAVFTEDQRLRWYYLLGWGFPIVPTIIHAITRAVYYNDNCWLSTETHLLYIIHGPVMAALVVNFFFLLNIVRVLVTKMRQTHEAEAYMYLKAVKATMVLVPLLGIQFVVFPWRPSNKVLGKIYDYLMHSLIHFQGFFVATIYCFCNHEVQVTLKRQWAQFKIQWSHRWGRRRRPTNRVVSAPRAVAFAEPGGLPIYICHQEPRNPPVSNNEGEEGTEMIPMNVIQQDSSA
T4 sequence (Q9JJ74 27-148 partner): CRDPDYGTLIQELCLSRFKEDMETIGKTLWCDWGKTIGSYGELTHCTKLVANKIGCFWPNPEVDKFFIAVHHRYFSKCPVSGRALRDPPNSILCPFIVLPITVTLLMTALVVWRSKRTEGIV

T3 sequence (Q16602 23-461): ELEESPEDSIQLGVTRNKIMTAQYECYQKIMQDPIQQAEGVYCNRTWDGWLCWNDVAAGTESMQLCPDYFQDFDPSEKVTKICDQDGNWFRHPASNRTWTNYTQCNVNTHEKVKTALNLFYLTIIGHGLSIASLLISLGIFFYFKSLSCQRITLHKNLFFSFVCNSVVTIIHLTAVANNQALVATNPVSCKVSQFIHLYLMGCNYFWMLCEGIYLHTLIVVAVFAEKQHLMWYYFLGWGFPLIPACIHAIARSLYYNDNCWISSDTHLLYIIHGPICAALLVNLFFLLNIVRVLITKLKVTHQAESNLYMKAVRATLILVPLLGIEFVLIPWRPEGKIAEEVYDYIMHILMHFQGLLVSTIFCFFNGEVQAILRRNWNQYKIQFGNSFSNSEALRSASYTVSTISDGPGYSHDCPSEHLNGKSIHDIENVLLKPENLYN
T3 sequence (O60894 27-148 partner): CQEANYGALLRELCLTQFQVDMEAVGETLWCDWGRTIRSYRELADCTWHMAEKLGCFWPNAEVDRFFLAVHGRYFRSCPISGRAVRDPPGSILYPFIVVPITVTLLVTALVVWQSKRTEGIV

DY(SO3) MGWMDF-NH2 [CCK-8]
% change (body weight) in DIO assay at day 2 (C57BL/6 mice (DIO); day 2): ~−2.8% | body weight in DIO assay at day 7 (C57BL/6 mice (DIO); day 7): rebounded to the HF diet control level

KCNTATCATQRLANFLVRSSNNLGPVLPPTNVGSNTY-NH2 [Rat Amylin, reference compound]
60 min ED50 (NIH/Swiss mice): 9 nmol/kg

leptin
activity in food intake assay (NIH/Swiss mice; mouse, in vivo): not active

[Ser117, dLeu119]leptin(116-122)-Amylin(1-7)-[^11,18Arg]sCT(8-27) -Amylin(33-37) [Compound 16]
anorexigenic effect in food intake assay (NIH/Swiss mice; 1 mg/kg): anorexigenic | anorexigenic effect compared with rat amylin (NIH/Swiss mice; rat amylin at 25 nmol/kg): superior to rat amylin | binding to CT receptor (calcitonin receptor): bound | activation of the CT receptor (CIA assay) (CT receptor): able to activate | binding to CGRP receptor (CGRP receptors): some binding | binding to amylin receptor (amylin receptors): bound

HGEGAFTSDLSKQLEEEAVRLFIEFLKN-NH2 [Compound 12, reference compound]
60 min ED50 (NIH/Swiss mice): 13 nmol/kg
